How the values were obtained:
Assay in all cases: relative viability (nuclei count vs DMSO), 5 days (fraction); higher = more cells survive
XMD13-2 + Lapatinib = compound: C1CC1C(=O)NC2=NNC3=C2C=CC(=C3)C4=CC(=CC=C4)C(=O)NC5CC5 [XMD13-2] + CS(=O)(=O)CCNCc1ccc(-c2ccc3ncnc(Nc4ccc(OCc5cccc(F)c5)c(Cl)c4)c3c2)o1 [Lapatinib] (partner 2 µM)
Outline: (§1)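 Dosing by pin tool came one day after lung cancer cell lines were seeded in 1536-well plates, using either one drug or a fixed anchor-drug dose plus five library-drug doses (not always all listed) in √10 steps. After 5 days, nuclei were counted on 4× images. Relative viability is treated-well nuclei count divided by vehicle-well nuclei count, and values are medians of duplicate plates.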

ALW-II-49-7 + Tozasertib = compound: Cc1ccc(C(=O)Nc2cccc(C(F)(F)F)c2)cc1Nc1cncc(C(N)=O)c1 [ALW-II-49-7] + Cc1cc(Nc2cc(N3CCN(C)CC3)nc(Sc3ccc(NC(=O)C4CC4)cc3)n2)n[nH]1 [Tozasertib] (partner 0.1 µM)
Outline: as §1

ALW-II-49-7 + Phenformin = compound: Cc1ccc(C(=O)Nc2cccc(C(F)(F)F)c2)cc1Nc1cncc(C(N)=O)c1 [ALW-II-49-7] + N=C(N)NC(=N)NCCc1ccccc1 [Phenformin] (partner 250 µM)
Outline: as §1

Dasatinib + Palbociclib = compound: Cc1nc(Nc2ncc(C(=O)Nc3c(C)cccc3Cl)s2)cc(N2CCN(CCO)CC2)n1 [Dasatinib] + CC(=O)c1c(C)c2cnc(Nc3ccc(N4CCNCC4)cn3)nc2n(C2CCCC2)c1=O [Palbociclib] (partner 0.5 µM)
Outline: as §1

Cell Line: UMC-11
- relative viability (XMD13-2 + Lapatinib; first compound 0.05 µM): 1.18
- relative viability (XMD13-2 + Lapatinib; first compound 0.1581 µM): 0.856
- relative viability (XMD13-2 + Lapatinib; first compound 0.5 µM): 1.01
- relative viability (XMD13-2 + Lapatinib; first compound 1.581 µM): 0.901
- relative viability (XMD13-2 + Lapatinib; first compound 5 µM): 1.08
- relative viability (ALW-II-49-7 + Tozasertib; first compound 0.08 µM): 0.193
- relative viability (ALW-II-49-7 + Tozasertib; first compound 0.253 µM): 0.202
- relative viability (ALW-II-49-7 + Tozasertib; first compound 0.8 µM): 0.21
- relative viability (ALW-II-49-7 + Tozasertib; first compound 2.53 µM): 0.186
- relative viability (ALW-II-49-7 + Tozasertib; first compound 8 µM): 0.217
- relative viability (ALW-II-49-7 + Phenformin; first compound 0.08 µM): 0.347
- relative viability (ALW-II-49-7 + Phenformin; first compound 0.253 µM): 0.372
- relative viability (ALW-II-49-7 + Phenformin; first compound 0.8 µM): 0.352
- relative viability (ALW-II-49-7 + Phenformin; first compound 2.53 µM): 0.304
- relative viability (ALW-II-49-7 + Phenformin; first compound 8 µM): 0.268
- relative viability (Dasatinib + Palbociclib; first compound 0.005 µM): 0.335
- relative viability (Dasatinib + Palbociclib; first compound 0.01581 µM): 0.278
- relative viability (Dasatinib + Palbociclib; first compound 0.05 µM): 0.27
- relative viability (Dasatinib + Palbociclib; first compound 0.1581 µM): 0.236
- relative viability (Dasatinib + Palbociclib; first compound 0.5 µM): 0.188

From the supplement of paper PMC10307832
